Reference: patent publication US11970497B2, “Tricyclic AKR1C3 dependent KARS inhibitors” (Novartis AG, priority 2019, dated 2024)
Like-named read-outs stand apart in the source and are kept apart here.

Tests used:
[1] = tested on: Hara (NRF2 pathway wild type cell line with low AKR1C3 expression); assay: In vitro cell proliferation assay (CellTiter-Glo), Hara; assay type: cell-based; details: 72 h, read-out: HARA Qualified absolute AC50
Text: (§1) Cellular Proliferation Assay to Assess Compounds Activity in H460 (NRF2 Pathway Mutant Cell Line with High AKR1C3 Expression) and Hara (NRF2 Pathway Wild Type Cell Line with Low AKR1C3 Expression).
(§2) The cell lines A549 and H460 are NRF2 pathway mutant and specifically contain genetic alterations in KEAP1 (A549: G333C, H460: D236H) (Singh A. et al., 2006 PLoS Medicine 3(10) e420). In these cell lines the NRF2 pathway is constitutively active and these cells express high levels of NRF2 protein and NRF2 pathway target gene AKR1C3. […] They have low AKR1C3 expression.
(§3) In Vitro Cell Proliferation Assay
(§4) Day 1, for H460 800 cells/well or 40 μL of 2×10^4 cells/mL and for Hara 2000 cells/well or 40 μL of 5×10^4 cells/mL medium (RPMI-1640 supplemented with 10% fetal bovine serum and 1% penicillin/streptomycin) were seeded into 384-well tissue culture plates. Day 2, compounds were serially diluted 1:5 to generate 8 point dose response curves and added to cells for a final top concentration of 10 μM. DMSO (1%) control and MG132 (30 μM) controls are added in columns 23 and 24 respectively on each plate for positive and negative control. After incubation for 3 days at 37° C./5% CO2, 30 μl of CellTiter-Glo reagent (Promega) was added and the plates were incubated for 10 min on plate shaker. The amount of luminescence was determined using a Perkin Elmer Envision plate reader. CellTiter-Glo luminescence values of cells treated with DMSO and MG132 controls were used to normalize the data and calculate percentage activity and AC50s of compounds using the Helios Software suite.

[2] = tested on: H460 (NRF2 pathway mutant cell line with high AKR1C3 expression); assay: In vitro cell proliferation assay (CellTiter-Glo), H460; assay type: cell-based; details: Homo sapiens, NCI-H460, 72 h, read-out: H460 Qualified absolute AC50
Text: as §1, §2, §3, §4

[3] = Hara cells, 3 days, CellTiter-Glo, top concentration 10 μM
[4] = H460 cells, 3 days, CellTiter-Glo, top concentration 10 μM

SMILES	AC50 [1, 3] [µM]	AC50 [2, 4] [µM]	AC50 [1] [µM]	AC50 [2] [µM]
O=C1CC2(CCN(C(=O)NCc3cocn3)CC2)Nc2ccc(F)cc21 [Example 138, 6′-fluoro-N-(oxazol-4-ylmethyl)-4′-oxo-3′,4′-dihydro-1′H-spiro[piperidine4,2′-quinoline]-1-carboxamide]	> 10	2.11	–	–
CCN1c2ccc(F)cc2C(=O)CC12CCN(C(=O)NCc1ccc(F)c(N)c1F)CC2 [Example 26, N-(3-amino-2,4-difluorobenzyl)-1′-ethyl-6′-fluoro-4′-oxo-3′,4′-dihydro-1′H-spiro[piperidine-4,2′-quinoline]-1-carboxamide]	> 10	0.047	–	–
Nc1cc(F)c(CNC(=O)N2CCC3(CC2)CC(=O)c2cc(F)ccc2N3)c(F)c1 [Example 80, N-(4-amino-2,6-difluorobenzyl)-6′-fluoro-4′-oxo-3′,4′-dihydro-1′H-spiro[piperidine-4,2′-quinoline]-1-carboxamide]	> 10	0.347	–	–
O=C1CC2(CCN(C(=O)NCc3ccc(F)cc3F)CC2)Nc2ccc(F)cc21 [Example 16, N-(2,4-difluorobenzyl)-6′-fluoro-4′-oxo-3′,4′-dihydro-1′H-spiro[piperidine-4,2′-quinoline]-1-carboxamide]	> 10	0.029	–	–
Nc1cc(CNC(=O)N2CCC3(CC2)CC(=O)c2cc(F)cc(F)c2N3)ccc1F [Example 73, N-(3-amino-4-fluorobenzyl)-6′,8′-difluoro-4′-oxo-3′,4′-dihydro-1′H-spiro[piperidine-4,2′-quinoline]-1-carboxamide]	3.48	0.295	–	–
Nc1cc(CNC(=O)N2CCC3(CC2)CC(=O)c2cc(F)ccc2N3)c(F)cc1F [Example 126, N-(5-amino-2,4-difluorobenzyl)-6′-fluoro-4′-oxo-3′,4′-dihydro-1′H-spiro[piperidine-4,2′-quinoline]-1-carboxamide]	> 10	1.29	–	–
Nc1cc(CNC(=O)N2CCC3(CC2)CC(=O)c2cc(F)ccc2N3)ccc1F [Example 95, N-(3-amino-4-fluorobenzyl)-6′-fluoro-4′-oxo-3′,4′-dihydro-1′H-spiro[piperidine-4,2′-quinoline]-1-carboxamide]	> 10	0.485	–	–
O=C1CC2(CCN(C(=O)NCc3ccc(O)cc3)CC2)Nc2c(F)cc(F)cc21 [Example 54, 6′,8′-difluoro-N-(4-hydroxybenzyl)-4′-oxo-3′,4′-dihydro-1′H-spiro[piperidine-4,2′-quinoline]-1-carboxamide]	9.85	0.003	–	–
CCCNC(=O)c1cc(CNC(=O)N2CCC3(CC2)CC(=O)c2cc(F)ccc2N3)ccc1F [Example 143, 6′-fluoro-N-(4-fluoro-3-(propylcarbamoyl)benzyl)-4′-oxo-3′,4′-dihydro-1′H-spiro[piperidine-4,2′-quinoline]-1-carboxamide]	> 10	2.62	–	–
O=C1CC2(CCN(C(=O)NCc3cccc(CO)c3)CC2)Nc2c(F)cc(F)cc21 [Example 129, 6′,8′-difluoro-N-(3-(hydroxymethyl)benzyl)-4′-oxo-3′,4′-dihydro-1′H-spiro[piperidine-4,2′-quinoline]-1-carboxamide]	> 10	1.52	–	–
CN1c2ccc(F)cc2C(=O)CC12CCN(C(=O)NCc1ccc(F)c(CC(N)=O)c1)CC2 [Example 62, N-(3-(2-amino-2-oxoethyl)-4-fluorobenzyl)-6′-fluoro-1′-methyl-4′-oxo-3′,4′-dihydro-1′H-spiro[piperidine-4,2′-quinoline]-1-carboxamide]	> 10	0.212	–	–
CN1c2ccc(F)cc2C(=O)CC12CCN(C(=O)NCc1ccc(F)c(NC[C@H](O)CO)c1)CC2 [Example 45, (S)—N-(3-((2,3-dihydroxypropyl)amino)-4-fluorobenzyl)-6′-fluoro-1′-methyl-4′-oxo-3′,4′-dihydro-1′H-spiro[piperidine-4,2′-quinoline]-1-carboxamide]	> 10	0.1	–	–
CC(O)c1cc(CNC(=O)N2CCC3(CC2)CC(=O)c2cc(F)ccc2N3C)ccc1F (stereo not shown) [Example 92, 6′-fluoro-N-(4-fluoro-3-(1-hydroxyethyl)benzyl)-1′-methyl-4′-oxo-3′,4′-dihydro-1′H-spiro[piperidine-4,2′-quinoline]-1-carboxamide]	> 10	0.467	–	–
CCN1c2ccc(F)cc2C(=O)CC12CCN(C(=O)NCc1ccc(F)c(NCCO)c1)CC2 [Example 25, 1′-ethyl-6′-fluoro-N-(4-fluoro-3-((2-hydroxyethyl)amino)benzyl)-4′-oxo-3′,4′-dihydro-1′H-spiro[piperidine-4,2′-quinoline]-1-carboxamide]	1.66	0.047	–	–
CN1c2ccc(F)cc2C(=O)CC12CCN(C(=O)NCc1ccc(F)c([C@@H](N)C(F)(F)F)c1)CC2 [Example 149, (R)—N-(3-(1-amino-2,2,2-trifluoroethyl)-4-fluorobenzyl)-6′-fluoro-1′-methyl-4′-oxo-3′,4′-dihydro-1′H-spiro[piperidine-4,2′-quinoline]-1-carboxamide]	> 10	5.43	–	–
Nc1ccc(CNC(=O)N2CCC3(CC2)CC(=O)c2cc(F)ccc2N3)cn1 [Example 136, N-((6-aminopyridin-3-yl)methyl)-6′-fluoro-4′-oxo-3′,4′-dihydro-1′H-spiro[piperidine-4,2′-quinoline]-1-carboxamide]	> 10	1.99	–	–
O=C1CC2(CCN(C(=O)NCc3cccc4c3OCO4)CC2)Nc2c(F)cc(F)cc21 [Example 53, N-(benzo[d][1,3]dioxol-4-ylmethyl)-6′,8′-difluoro-4′-oxo-3′,4′-dihydro-1′H-spiro[piperidine-4,2′-quinoline]-1-carboxamide]	2.02	0.141	–	–
CN1c2ccc(F)cc2C(=O)CC12CCN(C(=O)NCc1ccc(F)cc1NCCO)CC2 [Example 86, 6′-fluoro-N-(4-fluoro-2-((2-hydroxyethyl)amino)benzyl)-1′-methyl-4′-oxo-3′,4′-dihydro-1′H-spiro[piperidine-4,2′-quinoline]-1-carboxamide]	> 10	0.379	–	–
NS(=O)(=O)Cc1cc(CNC(=O)N2CCC3(CC2)CC(=O)c2cc(F)ccc2N3)ccc1F [Example 147, 6′-fluoro-N-(4-fluoro-3-(sulfamoylmethyl)benzyl)-4′-oxo-3′,4′-dihydro-1′H-spiro[piperidine-4,2′-quinoline]-1-carboxamide]	> 10	3.97	–	–
CN1c2ccc(F)cc2C(=O)CC12CCN(C(=O)NCc1ccc(F)c(NCC(C)(C)C(=O)O)c1)CC2 [Example 140, 3-((2-fluoro-5-((6′-fluoro-1′-methyl-4′-oxo-3′,4′-dihydro-1′H-spiro[piperidine-4,2′-quinoline]-1-carboxamido)methyl)phenyl)amino)-2,2-dimethylpropanoic acid]	–	–	> 10	2.34
NC(=O)c1cc(CNC(=O)N2CCC3(CC2)CC(=O)c2cc(F)ccc2N3)ccc1F [Example 24, N-(3-carbamoyl-4-fluorobenzyl)-6′-fluoro-4′-oxo-3′,4′-dihydro-1′H-spiro[piperidine-4,2′-quinoline]-1-carboxamide]	5.94	0.046	–	–
O=C1CC2(CCN(C(=O)NCc3ccc(F)c(OCCO)c3)CC2)Nc2ccc(F)cc21 [Example 70, 6′-fluoro-N-(4-fluoro-3-(2-hydroxyethoxy)benzyl)-4′-oxo-3′,4′-dihydro-1′H-spiro[piperidine-4,2′-quinoline]-1-carboxamide]	3.55	0.238	–	–
CC(C)S(=O)(=O)Nc1cc(CNC(=O)N2CCC3(CC2)CC(=O)c2cc(F)ccc2N3)ccc1F [Example 23, 6′-fluoro-N-(4-fluoro-3-((1-methylethyl)sulfonamido)benzyl)-4′-oxo-3′,4′-dihydro-1′H-spiro[piperidine-4,2′-quinoline]-1-carboxamide]	> 10	6.9	–	–
COCCOc1cc(CNC(=O)N2CCC3(CC2)CC(=O)c2cc(F)ccc2N3C)ccc1F [Example 21, 6′-fluoro-N-(4-fluoro-3-(2-methoxyethoxy)benzyl)-1′-methyl-4′-oxo-3′,4′-dihydro-1′H-spiro[piperidine-4,2′-quinoline]-1-carboxamide]	> 10	0.034	–	–
CCN1c2ccc(F)cc2C(=O)CC12CCN(C(=O)NCc1ccc(F)cc1)CC2 [Example 6, 1′-ethyl-6′-fluoro-N-(4-fluorobenzyl)-4′-oxo-3′,4′-dihydro-1′H-spiro[piperidine-4,2′-quinoline]-1-carboxamide]	> 10	0.009	–	–
Nc1ccc(CNC(=O)N2CCC3(CC2)CC(=O)c2cc(F)ccc2N3)cc1F [Example 56, N-(4-amino-3-fluorobenzyl)-6′-fluoro-4′-oxo-3′,4′-dihydro-1′H-spiro[piperidine-4,2′-quinoline]-1-carboxamide]	> 10	0.166	–	–
